Assay results: EP4624457A1, “I[…] DERIVATIVES, I[…] NEURODEGENERATIVE DISEASES” (Centre National de la Recherche Scientifique, priority 2024, dated 2025)

Legend:
[1] = molecular target: T1, neuronal α3β2 nAChR subtype (Rattus norvegicus, UniProt P04757+P12390); assay: Two-electrode voltage clamp electrophysiology on Xenopus laevis oocytes expressing the α3β2 nAChR; format: cell-based; settings: portimine 100 nM - 1 mM for 45 seconds; stated for the three nAChR subtypes tested
T1 construct: expressed in transfected cells; host or cells: Xenopus laevis oocytes injected with mRNA
T1 sequence (P12390 25-500): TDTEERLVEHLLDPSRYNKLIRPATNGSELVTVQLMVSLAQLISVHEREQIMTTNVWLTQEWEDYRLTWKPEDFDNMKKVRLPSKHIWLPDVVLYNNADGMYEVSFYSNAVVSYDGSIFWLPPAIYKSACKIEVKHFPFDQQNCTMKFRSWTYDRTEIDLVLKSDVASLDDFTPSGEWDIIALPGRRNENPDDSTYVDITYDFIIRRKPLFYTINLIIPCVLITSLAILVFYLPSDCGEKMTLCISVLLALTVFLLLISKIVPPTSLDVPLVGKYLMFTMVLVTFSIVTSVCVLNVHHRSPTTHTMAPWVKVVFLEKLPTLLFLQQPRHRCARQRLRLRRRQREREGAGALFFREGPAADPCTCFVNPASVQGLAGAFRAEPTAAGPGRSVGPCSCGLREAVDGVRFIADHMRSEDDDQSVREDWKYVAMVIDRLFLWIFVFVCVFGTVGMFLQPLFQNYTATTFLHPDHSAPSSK
T1 sequence (P04757 26-499): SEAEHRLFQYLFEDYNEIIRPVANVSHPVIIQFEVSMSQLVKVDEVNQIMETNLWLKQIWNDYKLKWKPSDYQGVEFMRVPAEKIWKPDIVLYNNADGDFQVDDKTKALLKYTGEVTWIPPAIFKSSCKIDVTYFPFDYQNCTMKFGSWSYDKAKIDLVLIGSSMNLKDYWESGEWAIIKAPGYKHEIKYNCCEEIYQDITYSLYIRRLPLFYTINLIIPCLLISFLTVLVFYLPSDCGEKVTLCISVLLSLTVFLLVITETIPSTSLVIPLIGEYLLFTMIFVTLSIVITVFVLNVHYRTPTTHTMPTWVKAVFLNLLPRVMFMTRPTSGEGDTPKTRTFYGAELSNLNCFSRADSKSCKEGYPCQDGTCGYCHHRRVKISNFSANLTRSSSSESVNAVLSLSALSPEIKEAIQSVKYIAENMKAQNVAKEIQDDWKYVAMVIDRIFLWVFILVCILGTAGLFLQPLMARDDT
Description: • Figure 1 represents the chemical structure of ingrilimine according to compound (Illa) formula. • Figure 2 represents the cytotoxic activity of ingrilimine. A2780 ovarian and HT29 colorectal carcinoma cells were grown in RPMI 1640 supplemented with 10% fetal calf serum (FCS) and 1% glutamine. U87-MG glioblastoma cells were grown in Dulbecco minimal essential medium containing 4.5 g/L glucose, 10% FCS and 1% glutamine at 37 °C in a humidified atmosphere containing 5% CO2. For IC50 determination, the cells were seeded in 96-well plates (3 × 10^3 cells/well) containing 90 µL of growth medium. After 24 h of culture, the cells were treated with ingrilimine at 10 different final concentrations. Cell viability was determined by luminescence after 72 h incubation. (a) Effect of ingrilimine on A2780 ovarian carcinoma cells. (b) Effect of ingrilimine on U87-MG glioblastoma cells. […] Sector Q normal cells that accumulated the JC-1 dye (fluorescence emission 590 nm). […] Changes in fluorescence emission were recorded by flow cytometry using the JC-1 mithocondrial membrane potential-dependent fluorescent dye. […] Phosphatidylcholine exposure in A2780 cell was quantified by flow cytometry using FITC-Annexin V. Dead or necrotic cells were detected using the vital dye propridium iodide. […]

HCT116 cells = assay: JC-1 mitochondrial membrane potential assay (flow cytometry); format: cell-based, human

In the case of `C=CC1=C[C@@H]2[C@@H]3O[C@]4(CC[C@H](O4)[C@@H](C)C[C@@H](O)C3=O)C[C@H](O)C3=NCC[C@@]32CC1` [Portimine-A], the “inhibition of the acetylcholine-evoked current, concentration range” value [1] is reported as “micromolar range”, the JC-1 % (HCT116 cells; 1 nM, 24 h, cells with mitochondrial membrane depolarization) is reported as 5.1% and the JC-1 % (HCT116 cells; 1 nM, 48 h) is reported as 8.1%. The JC-1 % (HCT116 cells; 5 nM, 24 h) was 9.2%.
